Measurements as given in patent US7799530B2, “Genetic polymorphisms associated with cardiovascular disorders and drug response, methods of detection and uses thereof” (Celera Corporation, priority 2005, dated 2010).

How the values were obtained:
[1] = tested on: MI / coronary events in Scottish men with hypercholesterolemia; experiment: WOSCOPS nested case-control study: MI/CHD in pravastatin- vs placebo-treated patients stratified by SNP genotype; format: in vivo, human; conditions: for OR, CHD case vs control, Matched: placebo = ref 1.00, cases and controls matched for age and smoking; for OR, CHD case vs control, Adjusted: placebo = ref 1.00, matched and adjusted for hypertension, diabetes, BMI, LDL-C, HDL-C; for Risk Reduction by Statin (Pravastatin vs. Placebo) OR: odds ratio of MI, pravastatin- vs placebo-treated, heterozygous carriers of hCV3054799 only
Excerpt: In order to identify genetic markers associated with acute coronary events (e.g. MI, stroke, unstable angina, congestive heart failure, etc.) or response to statin treatment for the prevention of coronary events, samples were genotyped in two clinical trials: the Cholesterol and Recurrent Events (CARE) study (a randomized multicentral double-blinded trial on secondary prevention of acute coronary events with pravastatin; Sacks et al., Am. J. Cardiol. 68: 1436-1446[1991]), and the West of Scotland Coronary Prevention Study (WOSCOPS) study (Shepherd et al., N Eng J Med 333 (20), pp. 1301-7, Nov. 16, 1995; Packard et al., N Eng J Med 343 (16), pp. 1148-55, Oct. 19, 2000).
Genetic markers identified as associated with acute coronary events or response to statin treatment for the prevention of coronary events in the CARE samples were also genotyped in a second sample set, the West of Scotland Coronary Prevention Study (WOSCOPS). The design of the original WOSCOPS cohort and the nested case-control study have been described (Shepherd et al., N Eng J Med 333 (20), pp. 1301-7, Nov. 16, 1995; Packard et al., N Eng J Med 343 (16), pp. 1148-55, Oct. 19, 2000). The objective of the WOSCOPS trial was to assess pravastatin efficacy at reducing risk of primary MI or coronary death among Scottish men with hypercholesterolemia (fasting LDL cholesterol>155 mg/dl). Participants in the WOSCOPS study were 45-64 years of age and followed for an average of 4.9 years for coronary events. The nested case-control study included as cases all WOSCOPS patients who experienced a coronary event (confirmed nonfatal MI, death from coronary heart disease, or a revascularization procedure; N=580). Controls were age- and smoking-matched unaffected patients. All individuals included in the study had signed informed consent forms and the study protocol was approved by the IRBs. DNA was extracted and genotyped as described above.
The association of hCV3054799 with risk of MI in patients was tested in two clinical trials, CARE and WOSCOPS, with patients receiving treatment with either pravastatin or placebo. CARE was a secondary prevention trial (i.e., recurrent MI as endpoint) and WOSCOPS was a primary prevention trial. […] The analysis in WOSCOPS (a nested case-control study) was performed using the MI as an endpoint.
In both the CARE and WOSCOPS studies, an association analysis was performed for each of the two modes of inheritance, dominant and recessive. Additionally, a genotypic test (heterozygote v. major homozygote) and an allelic test of association were performed using Fisher's exact method. Estimates of odds ratios and corresponding ninety-five percent confidence intervals were calculated. The significance of the disease association for hCV3054799 with the overall (unstratified) population, and with the placebo- or pravastatin-treated patients are indicated in Table 8. […] In patients that are heterozygous carriers of the minor allele, the odds ratio for risk of MI relative to patients with no minor allele is 1.7, with a P value below 0.01 both studies. The odds ratio is approximately the same (1.6-1.7) when calculated for the dominant mode of inheritance (a genotype with one or two minor alleles vs. none), with a P value less than or equal to 0.01 in both studies.
Also analyzed was whether hCV3054799 is associated with response to statin treatment (specifically, a decreased risk of MI as a result of treatment with pravastatin). […] Heterozygous carriers in the placebo treatment group were used as a reference in determining the odds ratios. […] For comparison, the odds ratio for association of this SNP with MI risk in placebo-treated carriers is also presented, under the heading “MI/RMI risk estimation” (data from Table 8; again, heterozygous carriers).
In analyzing the CARE patients, statistical analysis was performed with SAS version 9. […]

[2] = tested on: animal models and myocyte cultures; conditions: compared to other hydrophobic statins; cited from earlier work

With `CC[C@H](C)C(=O)O[C@H]1C[C@H](O)C=C2C=C[C@H](C)[C@H](CC[C@@H](O)C[C@@H](O)CC(=O)O)[C@H]21` [pravastatin] the “OR, CHD case vs control, Matched” value ([1]; KIF6 hCV3054799 AA) was 0.94, the “OR, CHD case vs control, Adjusted” value ([1]; KIF6 hCV3054799 AA) was 0.91 and the “OR, CHD case vs control, Matched” value ([1]; KIF6 hCV3054799 GG + GA) was 0.50. For the same molecule, the “OR, CHD case vs control, Adjusted” value ([1]; KIF6 hCV3054799 GG + GA) was 0.50, the “Risk Reduction by Statin (Pravastatin vs. Placebo) OR” value [1] was “approximately 0.5” and the “Risk Reduction by Statin (Pravastatin vs. Placebo) OR” value ([1]; listed as Pravastatin) was 0.45. The myopathic potential [2] was “low myopathic potential”.
